This is an account of results in publication PMC3634413, “Synthesis of Thieno[2,3-b]thiophene Containing Bis-Heterocycles-Novel Pharmacophores” (International Journal of Molecular Sciences, 2013).

Like-named read-outs stand apart in the source and are kept apart here.

For one data set, the system named is PC-3 cell line. Nature of the data set: Anticancer (cytotoxic) activity, MTT colorimetric assay. The conditions noted are these: compounds 1–30 μM, n = 3, read-out: IC50 ± SEM, Anticancer Activity (PC-3 Cell line). It is filed as cell-based. How it is done:
Cytotoxic activity of compounds was evaluated in 96-well flat-bottomed microplates by using the standard MTT (3-[4,5-dimethylthiazole-2-yl]-2,5-diphenyl-tetrazolium bromide, MP) colorimetric assay. For this purpose, PC3 cells (Prostrate Cancer) were cultured in Dulbecco’s Modified Eagle Medium, supplemented with 10% of fetal bovine serum (FBS, PAA), 100 IU/mL of penicillin and 100 μg/mL of streptomycin in 75 cm^2 flasks, and kept in 5% CO2 incubator at 37 °C. Exponentially growing cells were harvested, counted with a haemocytometer, and diluted with a particular medium with 5% FBS. Cell culture with the concentration of 1 × 10^5 cells/mL was prepared and introduced (100 μL/well) into 96-well plates. After overnight incubation, medium was removed and 200 μL of fresh medium was added with different concentrations of compounds (1–30 μM). Stock solution, 20 mM of compounds were prepared in 100% DMSO, and the final concentration of DMSO at 30 μM is 0.15%. After 48 h, 200 μL MTT (0.5 mg/mL) was added to each well and incubated further for four hours. Subsequently, 100 μL of DMSO was added to each well. The extent of MTT reduction to formazan within cells was calculated by measuring the absorbance at 570 nm, using a microplate reader (SpectraMax plus, Molecular Devices, Sunnyvale, CA, USA). The cytotoxicity was recorded as concentration causing 50% growth inhibition (IC50) for PC3 cells. The percent inhibition was calculated by using the following formula:
% Inhibition=100-((mean of OD of test compound-mean of OD of negative control)/(mean of OD of positive control-mean of OD of negative control)×100).
The results (% inhibition) were processed by using SoftMax Pro software (Molecular Device, USA).

Data set [1] can be described thus: DPPH radical scavenging assay (in vitro antioxidant activity). The conditions noted are these: DPPH 300 μM, 30 min at 37 °C, NA = not active, failed to show 50% or more inhibition at 500 μM or more; for IC50: read-out: IC50 ± SEM, DPPH Radical Scavenging Assay. The method, then: Test samples were allowed to react with stable free radical, 1,1-diphenyl-2-picrylhydrazyl radical (DPPH, Wako Chemicals, Shanghai, China) for half an hour at 37 °C. Various concentrations of test samples (prepared in DMSO) were incubated with DPPH (300 μM; prepared in ethanol). After incubation, decrease in absorption was measured at 515 nm by using a microplate reader (SpectraMax plus 384). Percentage radical scavenging activity (% RSA) of samples was determined in comparison with a DMSO-treated control group. Percentage of radical scavenging activity was calculated by using the formula given in statistical analysis section.
(§1) All reactions were performed in triplicate in a final volume of 200 μL. The results were processed using SoftMax Pro 4.8 software (Molecular Devices, Sunnyvale, CA, USA) and then using MS Excel. The percentage of inhibition was calculated by the following formula:
(§2) % Inhibition=100-(OD of test sample/OD of the control)×100

Another data set deals with T1, β-glucuronidase (Escherichia coli, UniProt P05804).
T1 construct: purchased Sigma Aldrich G7396-25KU
T1 sequence (P05804 whole entry): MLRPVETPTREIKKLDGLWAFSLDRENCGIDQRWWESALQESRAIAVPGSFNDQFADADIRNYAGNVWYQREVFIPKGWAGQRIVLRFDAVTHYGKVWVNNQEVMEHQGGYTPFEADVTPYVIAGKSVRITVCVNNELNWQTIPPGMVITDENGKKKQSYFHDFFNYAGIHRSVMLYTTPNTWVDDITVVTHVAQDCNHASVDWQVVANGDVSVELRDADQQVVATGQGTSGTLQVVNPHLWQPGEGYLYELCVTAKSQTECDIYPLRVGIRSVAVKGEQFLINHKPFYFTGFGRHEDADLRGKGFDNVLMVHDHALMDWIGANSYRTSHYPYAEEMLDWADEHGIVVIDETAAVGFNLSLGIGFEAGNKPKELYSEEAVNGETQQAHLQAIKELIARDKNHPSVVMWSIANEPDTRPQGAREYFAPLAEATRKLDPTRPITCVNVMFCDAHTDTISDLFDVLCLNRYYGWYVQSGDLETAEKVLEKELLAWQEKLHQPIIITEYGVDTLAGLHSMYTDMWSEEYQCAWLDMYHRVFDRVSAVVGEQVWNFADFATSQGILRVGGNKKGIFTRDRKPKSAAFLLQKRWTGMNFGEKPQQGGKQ
Nature of the data set: In vitro β-glucuronidase inhibition assay. It is filed as biochemical. The conditions noted are these: substrate p-nitrophenyl-β-D-glucuronide, 37 °C; NA = not active, failed to show 50% or more inhibition at 500 μM or more; read-out: IC50 ± SEM, β-Glucuronidase Inhibition. How it is done: Results are presented here as means ± standard error mean from triplicate (n = 3) observation. IC50 Values were determined by using EZ-FIT, enzyme kinetics software by Perrella Scientific, Inc., USA.
β-Glucuronidase inhibitory activity was determined by the spectrophotometric method by measuring the absorbance at 405 nm of p-nitrophenol formed from the substrate p-nitrophenyl-β-D-glucuronide N1627-250 mg (Sigma Aldrich Co., 3050 spruce street, St. Louis, MO, USA). The total reaction volume was 250 μL. The compound (5 μL) was dissolved in DMSO (100%), which became 2% in the ultimate assay (250 μL) and similar conditions were used for standard (D-saccharic acid 1,4-lactone, Sigma Aldrich Co.). The reaction mixture contained 185 μL of 0.1 M acetate buffer, 5 μL of test compound solution, 10 μL of (1U) enzyme solution (G7396-25KU, Sigma Aldrich) was incubated at 37 °C for 30 min. The plates were read on a multiplate reader (SpectraMax plus 384) at 405 nm after the addition of 50 μL of 0.4 mM p-nitrophenyl-β-D-glucuronide. All assays were performed in triplicate. IC50 Values were calculated by using EZ-Fit software (Perrella Scientific Inc., Amherst, MA, USA). These values are the mean of three independent readings.

For data set [2], the target named is T2, α-Glucosidase from Saccharomyces cerevisiae (Saccharomyces cerevisiae, UniProt P53341).
T2 construct: purchased Sigma Aldrich G0660-750UN
T2 sequence (P53341 whole entry): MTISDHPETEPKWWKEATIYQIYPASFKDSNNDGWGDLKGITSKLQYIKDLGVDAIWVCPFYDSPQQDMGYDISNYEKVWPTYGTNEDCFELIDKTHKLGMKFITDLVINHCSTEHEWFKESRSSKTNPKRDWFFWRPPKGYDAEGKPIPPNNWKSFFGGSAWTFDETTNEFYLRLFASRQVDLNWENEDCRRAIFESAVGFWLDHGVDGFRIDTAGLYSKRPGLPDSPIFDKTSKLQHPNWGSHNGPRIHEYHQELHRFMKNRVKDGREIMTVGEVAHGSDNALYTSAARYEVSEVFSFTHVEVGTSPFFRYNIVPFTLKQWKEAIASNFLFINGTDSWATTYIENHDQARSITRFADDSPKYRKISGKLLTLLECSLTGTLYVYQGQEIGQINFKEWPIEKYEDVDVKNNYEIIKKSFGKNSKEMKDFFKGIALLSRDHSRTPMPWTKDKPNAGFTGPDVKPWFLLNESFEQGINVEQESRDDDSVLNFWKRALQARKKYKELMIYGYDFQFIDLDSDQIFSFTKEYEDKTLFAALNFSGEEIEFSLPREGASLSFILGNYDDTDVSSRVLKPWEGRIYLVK
Put plainly: In vitro α-glucosidase inhibition assay. Type of data set: biochemical. Conditions: pH 6.8, substrate p-nitrophenyl-α-D-glucopyranoside, NA = not active, failed to show 50% or more inhibition at 500 μM or more; for IC50: read-out: IC50 ± SEM, α-Glucosidase Inhibition. The method, then:
α-Glucosidase inhibition assay was performed spectrophotometrically. α-Glucosidase from Saccharomyces cerevisiae (G0660-750UN, Sigma Aldrich), was dissolved in phosphate buffer (pH 6.8, 50 mM). Test compounds were dissolved in 70% DMSO. In 96-well plates, 20 μL of test sample, 20 μL of enzyme and 135 μL of buffer were added and incubated for 15 min at 37 °C. After incubation, 25 μL of p-nitrophenyl-α-D-glucopyranoside (0.7 mM, Sigma Aldrich) was added and change in absorbance was monitored for 30 min at 400 nm. Test compound was replaced with DMSO (7.5% final) in control. Acarbose (Sigma Aldrich) was used as a standard inhibitor [25, 26].
as §1, §2

Broadly, the melting point is the temperature, or range, at which the solid turns liquid. One may read the IC50 as the concentration at which inhibition is half-maximal. In turn, `Cc1c(-c2ccnc(O)n2)sc2sc(-c3ccnc(O)n3)c(-c3ccccc3)c12` [Compound 4a, 4,4′-(3-Methyl-4-Phenylthieno[2,3-b]Thiophene-2,5-Diyl)Dipyrimidin-2-Ol] yielded a melting point of 248 °C. For the same compound, in the data set on PC-3 cell line (Homo sapiens, PC-3, 48 h), the IC50 is > 30 µM.
Take `CC(=O)N[C@@H](CS)C(=O)O` [N-Acetylcysteine, reference compound]: in data set [1], the IC50 was 106 ± 1.1 µM.
`Cc1c(-c2ccnc(N)n2)sc2sc(-c3ccnc(N)n3)c(-c3ccccc3)c12` [Compound 4c, 4,4′-(3-Methyl-4-Phenylthieno[2,3-b]Thiophene-2,5-Diyl)Dipyrimidin-2-Amine] had a melting point of 246 °C.
With `Cc1c(-c2ccnc3nc4ccccc4n23)sc2sc(-c3ccnc4nc5ccccc5n34)c(-c3ccccc3)c12` [Compound 7, 2,2′-(3-Methyl-4-Phenylthieno[2,3-b]Thiophene-2,5-Diyl)Bis(Benzo[4, 5]Imidazo[1,2-a] Pyrimidine)], the melting point stood at 245 °C. Moreover, the 50% inhibitory concentration (IC50) in the data set with PC-3 cell line (Homo sapiens, PC-3, 48 h) is > 30 µM.
“3,3′-(3-Methyl-4-Phenylthieno[2,3-b]Thiophene-2,5-Diyl)Bis(1-Phenyl-1H-Pyrazole) [Compound 5b]”: the IC50 on β-glucuronidase is 8.7 ± 0.1 µM; in data set [1] it was 165 ± 2.8 µM; in data set [2] it was 58.4 ± 1.2 µM; in the data set on PC-3 cell line (48 h), > 30 µM.
For the compound `Cc1c(-c2cc[nH]n2)sc2sc(-c3cc[nH]n3)c(-c3ccccc3)c12` [Compound 5a, 3,3′-(3-Methyl-4-Phenylthieno[2,3-b]Thiophene-2,5-Diyl)Bis(1H-Pyrazole)], the melting point stood at 177 °C. At β-glucuronidase, the IC50 was determined as 2.3 ± 0.4 µM. The “IC50 ± SEM, DPPH Radical Scavenging Assay” value in data set [1] is listed as “no antioxidant activity”. In data set [2], the IC50 was 22 ± 0.3 µM. The IC50 with PC-3 cell line (Homo sapiens, PC-3, 48 h) was determined as 22.5 ± 0.1 µM.
`Cc1c(-c2ccnc(S)n2)sc2sc(-c3ccnc(S)n3)c(-c3ccccc3)c12` [Compound 4b, 4,4′-(3-Methyl-4-Phenylthieno[2,3-b]Thiophene-2,5-Diyl)Dipyrimidin-2-Thiol] registered a melting point of 247 °C. Further, the IC50 on β-glucuronidase was 1.3 ± 0.2 µM. Moreover, the “IC50 ± SEM, DPPH Radical Scavenging Assay” value in data set [1] is “inactive”. For the same compound, the “IC50 ± SEM, α-Glucosidase Inhibition” value in data set [2] was “inactive”. For the same compound, in the data set on PC-3 cell line (Homo sapiens, PC-3, 48 h), the IC50 was > 30 µM.
With `Cc1c(-c2ccnc3ncnn23)sc2sc(-c3ccnc4ncnn34)c(-c3ccccc3)c12` [Compound 6, 7,7′-(3-Methyl-4-Phenylthieno[2,3-b]Thiophene-2,5-Diyl)Di-[1,2, 4]Triazolo[1,5-a]Pyrimidine], the melting point was found to be 245 °C. The IC50 in the data set with PC-3 cell line (Homo sapiens, PC-3, 48 h) was > 30 µM.
The corresponding values for `Cc1c(C(=O)C=CN(C)C)sc2sc(C(=O)C=CN(C)C)c(-c3ccccc3)c12` [Compound 3, 1,1′-(3-Methyl-4-Phenylthieno[2,3-b]Thiophene-2,5-Diyl)Bis(3-(Dimethylamino)Prop-2-En-1-One)] are 250 °C and > 30 µM.
As to `COc1cccc2c1C(=O)c1c(O)c3c(c(O)c1C2=O)C[C@@](O)(C(=O)CO)C[C@@H]3O[C@H]1C[C@H](N)[C@H](O)[C@H](C)O1` [Doxorubicin, reference compound], the IC50 in the data set with PC-3 cell line (Homo sapiens, PC-3, 48 h) was 0.91 ± 0.1 µM.
Take `O=C(O)[C@@H](O)[C@H]1OC(=O)[C@H](O)[C@H]1O` [D-Saccharic acid 1,4-lactone, D-saccharic acid 1,4-lactone, reference compound]: the IC50 at β-glucuronidase is 45.8 µM.
